The values that follow come from US11319299B2, “Substituted carboxamides as inhibitors of WDR5 protein-protein binding” (PROPELLON THERAPEUTICS INC., priority 2016, dated 2022).

Each structure is given as a SMILES string. pKd: −log10 of the molar value.

This test has as its target WDR5 (Homo sapiens (Human), UniProt P61964). Nature of the test: Surface Plasmon Resonance (SPR) assay, KD and residence time. The format is binding. As to conditions: surface plasmon resonance (SPR); read-out: WDR5 binding affinity (KD).
Broadly, the pKd is −log10 of the Kd, conventionally taken in molar units. `C[C@@H]1CN(c2cc(F)c(-c3ccc4scnc4c3)cc2NC(=O)c2cn(C)c(=O)cc2C(F)F)C[C@H](C)N1C` [Example 683, N-[5-(1,3-benzothiazol-5-yl)-4-fluoro-2-[(3R,5S)-3,4,5-trimethylpiperazin-1-yl]phenyl]-4-(difluoromethyl)-1-methyl-6-oxopyridine-3-carboxamide]: the negative logarithm of the Kd (pKd) was 7.91.
For the compound `C[C@@H]1CN(c2cc(F)c(-c3ccc4ncsc4c3)cc2NC(=O)c2cn(C)c(=O)cc2C(F)F)C[C@H](C)N1C` [Example 684, N-[5-(1,3-benzothiazol-6-yl)-4-fluoro-2-[(3R,5S)-3,4,5-trimethylpiperazin-1-yl]phenyl]-4-(difluoromethyl)-1-methyl-6-oxopyridine-3-carboxamide], the pKd was 8.11.
To `C[C@@H]1CN(c2cc(F)c(C3=CCN(c4ncc(C#N)s4)CC3)cc2NC(=O)c2c[nH]c(=O)cc2C(F)F)C[C@H](C)N1C` [Example 685, N-[5-[1-(5-cyano-1,3-thiazol-2-yl)-3,6-dihydro-2H-pyridin-4-yl]-4-fluoro-2-[(3R,5S)-3,4,5-trimethylpiperazin-1-yl]phenyl]-4-(difluoromethyl)-6-oxo-1H-pyridine-3-carboxamide] belongs 8.65; to `C[C@@H]1CN(c2cc(F)c(C3=CCCN(c4ncc(C#N)s4)C3)cc2NC(=O)c2c[nH]c(=O)cc2C(F)F)C[C@H](C)N1C` [Example 687, N-[5-[1-(5-cyano-1,3-thiazol-2-yl)-3,6-dihydro-2H-pyridin-5-yl]-4-fluoro-2-[(3R,5S)-3,4,5-trimethylpiperazin-1-yl]phenyl]-4-(difluoromethyl)-6-oxo-1H-pyridine-3-carboxamide], 8.74.
The value for `C[C@@H]1CN(c2cc(F)c(-c3ccnc(N4CCOCC4)n3)cc2NC(=O)c2c[nH]c(=O)cc2C(F)F)C[C@H](C)N1C` [Example 692, 4-(difluoromethyl)-N-[4-fluoro-5-(2-morpholin-4-ylpyrimidin-4-yl)-2-[(3R,5S)-3,4,5-trimethylpiperazin-1-yl]phenyl]-6-oxo-1H-pyridine-3-carboxamide] was 8.62.
Consider `C[C@@H]1CN(c2cc(F)c(-c3ccnc(N4CCOCC4)n3)cc2NC(=O)c2cn(C)c(=O)cc2C(F)(F)F)C[C@H](C)N1C` [Example 693, N-[4-fluoro-5-(2-morpholin-4-ylpyrimidin-4-yl)-2-[(3R,5S)-3,4,5-trimethylpiperazin-1-yl]phenyl]-1-methyl-6-oxo-4-(trifluoromethyl)pyridine-3-carboxamide], for which the negative logarithm of the Kd (pKd) was 8.32.
To `C[C@@H]1CN(c2cc(F)c(-c3ccnc(OC4CCOCC4)n3)cc2NC(=O)c2c[nH]c(=O)cc2C(F)(F)F)C[C@H](C)N1C` [Example 695, N-[4-fluoro-5-[2-(oxan-4-yloxy)pyrimidin-4-yl]-2-[(3R,5S)-3,4,5-trimethylpiperazin-1-yl]phenyl]-6-oxo-4-(trifluoromethyl)-1H-pyridine-3-carboxamide] belongs 8.60; to `C[C@@H]1CN(c2cc(F)c(C3=CCN(c4ncc(C#N)s4)CC3)cc2NC(=O)c2c[nH]c(=O)cc2C(F)(F)F)C[C@H](C)N1C` [Example 696, N-[5-[1-(5-cyano-1,3-thiazol-2-yl)-3,6-dihydro-2H-pyridin-4-yl]-4-fluoro-2-[(3R,5S)-3,4,5-trimethylpiperazin-1-yl]phenyl]-6-oxo-4-(trifluoromethyl)-1H-pyridine-3-carboxamide], 8.88.
`C[C@@H]1CN(c2cc(F)c(C3=CCCN(C(=O)OC4(C)CCC4)CC3)cc2NC(=O)c2c[nH]c(=O)cc2C(F)(F)F)C[C@H](C)N1C` [Example 699, (1-methylcyclobutyl) 4-[2-fluoro-5-[[6-oxo-4-(trifluoromethyl)-1H-pyridine-3-carbonyl]amino]-4-[(3R,5S)-3,4,5-trimethylpiperazin-1-yl]phenyl]-2,3,6,7-tetrahydroazepine-1-carboxylate]: the negative-log Kd (pKd) was 8.43.
The value for `C[C@@H]1CN(c2cc(F)c(C3=CCCN(c4ncc(C#N)s4)CC3)cc2NC(=O)c2c[nH]c(=O)cc2C(F)(F)F)C[C@H](C)N1C` [Example 700, N-[5-[1-(5-cyano-1,3-thiazol-2-yl)-2,3,6,7-tetrahydroazepin-4-yl]-4-fluoro-2-[(3R,5S)-3,4,5-trimethylpiperazin-1-yl]phenyl]-6-oxo-4-(trifluoromethyl)-1H-pyridine-3-carboxamide] was 8.14.
The value for `C[C@@H]1CN(c2cc(F)c(C3=CCCN(c4ccnc(C#N)n4)C3)cc2NC(=O)c2c[nH]c(=O)cc2C(F)(F)F)C[C@H](C)N1C` [Example 701, N-[5-[1-(2-cyanopyrimidin-4-yl)-3,6-dihydro-2H-pyridin-5-yl]-4-fluoro-2-[(3R,5S)-3,4,5-trimethylpiperazin-1-yl]phenyl]-6-oxo-4-(trifluoromethyl)-1H-pyridine-3-carboxamide] was 8.76; that for `C[C@@H]1CN(c2cc(F)c(C3=CCN(C(=O)OC4CC(F)(F)C4)CC3)cc2NC(=O)c2c[nH]c(=O)cc2C(F)F)C[C@H](C)N1C` [Example 702, (3,3-difluorocyclobutyl) 4-[5-[[4-(difluoromethyl)-6-oxo-1H-pyridine-3-carbonyl]amino]-2-fluoro-4-[(3R,5S)-3,4,5-trimethylpiperazin-1-yl]phenyl]-3,6-dihydro-2H-pyridine-1-carboxylate] was 8.46.
The value for `C[C@@H]1CN(c2cc(F)c(C3=CCCN(C(=O)OC4CC(F)(F)C4)C3)cc2NC(=O)c2c[nH]c(=O)cc2C(F)F)C[C@H](C)N1C` [Example 704, (3,3-difluorocyclobutyl) 5-[5-[[4-(difluoromethyl)-6-oxo-1H-pyridine-3-carbonyl]amino]-2-fluoro-4-[(3R,5S)-3,4,5-trimethylpiperazin-1-yl]phenyl]-3,6-dihydro-2H-pyridine-1-carboxylate] was 8.57; that for `C[C@@H]1CN(c2cc(F)c(C3=CCN(c4ccnc(C#N)n4)CC3)cc2NC(=O)c2c[nH]c(=O)cc2C(F)(F)F)C[C@H](C)N1C` [Example 709, N-[5-[1-(2-cyanopyrimidin-4-yl)-3,6-dihydro-2H-pyridin-4-yl]-4-fluoro-2-[(3R,5S)-3,4,5-trimethylpiperazin-1-yl]phenyl]-6-oxo-4-(trifluoromethyl)-1H-pyridine-3-carboxamide] was 9.14; that for `C[C@@H]1CN(c2cc(F)c(-c3cc(F)c(C(=O)NC4CCCCC4)c(F)c3)cc2NC(=O)c2c[nH]c(=O)cc2C(F)(F)F)C[C@H](C)N1C` [Example 710, N-[5-[4-(cyclohexylcarbamoyl)-3,5-difluorophenyl]-4-fluoro-2-[(3R,5S)-3,4,5-trimethylpiperazin-1-yl]phenyl]-6-oxo-4-(trifluoromethyl)-1H-pyridine-3-carboxamide] was 8.69.
As to `C[C@@H]1CN(c2cc(F)c(-c3cc(F)c(C(=O)NC4CCCCC4(C)C)c(F)c3)cc2NC(=O)c2c[nH]c(=O)cc2C(F)(F)F)C[C@H](C)N1C` (stereo partly drawn) [Example 711, N-[5-[4-[(2,2-dimethylcyclohexyl)carbamoyl]-3,5-difluorophenyl]-4-fluoro-2-[(3R,5S)-3,4,5-trimethylpiperazin-1-yl]phenyl]-6-oxo-4-(trifluoromethyl)-1H-pyridine-3-carboxamide], the pKd was 8.50.
